Results reported in patent publication US20190184054A1, “COMPOSITIONS FOR THE TREATMENT OF PAIN AND/OR INFLAMMATION” (BCN PEPTIDES. S.A., priority 2008, published 2019).
Primed or numbered codes have the meaning given here. *: point of attachment. PEG1′ = PEG spacer, n=1 in acetyl-PEGn N-terminus; PEG2′ = PEG spacer, n=2 in acetyl-PEGn N-terminus; PEG3′ = PEG spacer, n=3 in acetyl-PEGn N-terminus; PEG4′ = PEG spacer, n=4 in acetyl-PEGn N-terminus; PEG5′ = PEG spacer, n=5 in acetyl-PEGn N-terminus; Palmitoyl = CCCCCCCCCCCCCCCC(=O)*

tested on: inflammation produced by intraplantar injection of carrageenan; assay: carrageenan test: paw volume increase after intraplantar carrageenan, measured with a plethysmometer; assay type: in vivo; conditions: diclofenac 10 mg/kg, positive control used as the standard
Text: Carrageenan is an irritant whose administration causes a powerful inflammation four hours after administration. The inflammatory process can be easily discerned as an increase in the volume of the paw that received carrageenan, measured with a plethysmometer. […] Therefore, the peptides of this invention have anti-inflammatory activity in vivo.

Molecule	ANTI-INFLAMMATORY ACTIVITY [%]
O=C(O)Cc1ccccc1Nc1c(Cl)cccc1Cl [diclofenac, reference compound]	100

same assay, conditions: peptides 5 mg/kg (im); decrease in inflammation standardized to positive control diclofenac

Molecule	ANTI-INFLAMMATORY ACTIVITY [%]
Ac-PEG2-SEQ ID No. 11-NH2: acetyl-PEGn (n=2) N-terminus, amide C-terminus; SNAP-25 residues 12 to 17 (SEQ ID No. 11) ({Ac-PEG2′}-EEMQRR-NH2; listed as Homo sapiens)	29
Ac-PEG1-SEQ ID No. 11-NH2: acetyl-PEGn (n=1) N-terminus, amide C-terminus; SNAP-25 residues 12 to 17 (SEQ ID No. 11) ({Ac-PEG1′}-EEMQRR-NH2; listed as Homo sapiens)	21
Ac-SEQ ID No. 11-NH2: acetyl N-terminus, amide C-terminus; SNAP-25 residues 12 to 17 (SEQ ID No. 11) (Ac-EEMQRR-NH2; listed as Homo sapiens)	49
Ac-PEG5-SEQ ID No. 11-NH2: acetyl-PEGn (n=5) N-terminus, amide C-terminus; SNAP-25 residues 12 to 17 (SEQ ID No. 11) ({Ac-PEG5′}-EEMQRR-NH2; listed as Homo sapiens)	53
Ac-PEG4-SEQ ID No. 11-NH2: acetyl-PEGn (n=4) N-terminus, amide C-terminus; SNAP-25 residues 12 to 17 (SEQ ID No. 11) ({Ac-PEG4′}-EEMQRR-NH2; listed as Homo sapiens)	23
Palm-SEQ ID No. 11-MH2: palmitoyl N-terminus, amide C-terminus; SNAP-25 residues 12 to 17 (SEQ ID No. 11) (Palmitoyl-EEMQRR-NH2; SMILES CCCCCCCCCCCCCCCC(=O)N[C@@H](CCC(=O)O)C(=O)N[C@@H](CCC(=O)O)C(=O)N[C@@H](CCSC)C(=O)N[C@@H](CCC(N)=O)C(=O)N[C@@H](CCCNC(=N)N)C(=O)N[C@@H](CCCNC(=N)N)C(N)=O; listed as Homo sapiens)	81
Ac-SEQ ID No. 26-NH2: acetyl N-terminus, amide C-terminus; SNAP-25-derived sequence SEQ ID No. 26 (Ac-EEMQRRA-NH2; listed as Homo sapiens)	14
Palm-SEQ ID No. 9-NH2: palmitoyl N-terminus, amide C-terminus; SNAP-25 residues 26 to 38 (SEQ ID No. 9) (Palmitoyl-LESTRRMLQLVEE-NH2; SMILES CCCCCCCCCCCCCCCC(=O)N[C@@H](CC(C)C)C(=O)N[C@@H](CCC(=O)O)C(=O)N[C@@H](CO)C(=O)N[C@H](C(=O)N[C@@H](CCCNC(=N)N)C(=O)N[C@@H](CCCNC(=N)N)C(=O)N[C@@H](CCSC)C(=O)N[C@@H](CC(C)C)C(=O)N[C@@H](CCC(N)=O)C(=O)N[C@@H](CC(C)C)C(=O)N[C@H](C(=O)N[C@@H](CCC(=O)O)C(=O)N[C@@H](CCC(=O)O)C(N)=O)C(C)C)[C@@H](C)O; listed as Homo sapiens)	77
Ac-SEQ ID No. 4-NH2: acetyl N-terminus, amide C-terminus; SNAP-25 residues 10 to 22 (SEQ ID No. 4) (Ac-ELEEMQRRADQLA-NH2; listed as Homo sapiens)	65
Palm-SEQ ID No. 4-NH2: palmitoyl N-terminus, amide C-terminus; SNAP-25 residues 10 to 22 (SEQ ID No. 4) (Palmitoyl-ELEEMQRRADQLA-NH2; SMILES CCCCCCCCCCCCCCCC(=O)N[C@@H](CCC(=O)O)C(=O)N[C@@H](CC(C)C)C(=O)N[C@@H](CCC(=O)O)C(=O)N[C@@H](CCC(=O)O)C(=O)N[C@@H](CCSC)C(=O)N[C@@H](CCC(N)=O)C(=O)N[C@@H](CCCNC(=N)N)C(=O)N[C@@H](CCCNC(=N)N)C(=O)N[C@@H](C)C(=O)N[C@@H](CC(=O)O)C(=O)N[C@@H](CCC(N)=O)C(=O)N[C@@H](CC(C)C)C(=O)N[C@@H](C)C(N)=O; listed as Homo sapiens)	58
Ac-PEG3-SEQ ID No. 11-NH2: acetyl-PEGn (n=3) N-terminus, amide C-terminus; SNAP-25 residues 12 to 17 (SEQ ID No. 11) ({Ac-PEG3′}-EEMQRR-NH2; listed as Homo sapiens)	42
Ac-SEQ ID No. 9-NH2: acetyl N-terminus, amide C-terminus; SNAP-25 residues 26 to 38 (SEQ ID No. 9) (Ac-LESTRRMLQLVEE-NH2; listed as Homo sapiens)	98
